From patent US4450269A, “Mono-5-substituted-3-chloro-4H-1,2,6-thiadiazin-4-one antifungal agents” (FMC Corporation, priority 1980, dated 1984)

How the values were obtained:
Format in all cases: cell-based
Botrytis cinerea = test: Spore germination test; conditions: BC, 48 hours
Procedure, shortened: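 Compound was delivered in acetone into water agar at final 40, 10, 2.5 and 1 ppm. Alternaria solani and Botrytis cinerea spores were applied as sterile-water suspensions, while Erysiphe polygoni and Uromyces phaseoli spores were brushed on from infected leaves. After 48 h at 24° C., percentage germination was converted to a rating.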

Pythium ultimum = test: Mycelial growth test; conditions: PU; for inhibition at 5 ppm / inhibition at 10 ppm / inhibition at 20 ppm / inhibition at 40 ppm: Globisporangium ultimum, 72 h, read-out: Percent Fungus Growth Inhibition
Cladosporium cucumerinum = test: Spore germination test; conditions: CC, 48 hours
Procedure, shortened: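 Compound in acetone mixed into water agar at 40, 10, 2.5 and 1 ppm; plates seeded with spore suspension and incubated 48 hours at 24 °C. Percentage germinated spores counted and converted into a germination rating.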

Structure (SMILES) | Spore Germination Rating (Botrytis cinerea; 1.0 ppm) | Spore Germination Rating (Botrytis cinerea; 2.5 ppm) | Spore Germination Rating (Botrytis cinerea; 10 ppm) | Spore Germination Rating (Botrytis cinerea; 40 ppm) | inhibition at 5 ppm (Pythium ultimum) | inhibition at 10 ppm (Pythium ultimum) | inhibition at 20 ppm (Pythium ultimum; 20 ppm) | inhibition at 40 ppm (Pythium ultimum) | Spore Germination Rating (Cladosporium cucumerinum; 1.0 ppm) | Spore Germination Rating (Cladosporium cucumerinum; 2.5 ppm) | Spore Germination Rating (Cladosporium cucumerinum; 10 ppm) | Spore Germination Rating (Cladosporium cucumerinum; 40 ppm) | Percent Fungus Growth Inhibition (Pythium ultimum; 20 ppm, 72 hours)
O=c1c(Cl)nsnc1Oc1cccc(Cl)c1Cl [Compound 19, 3-chloro-5-(2,3-dichlorophenoxy)-4H--1,2,6-thiadiazin-4-one] | 4 (80-100) | 1 (10-40) | 0 (0-10) | 0 (0-10) | 20% | 80% | 100% | 100% | 2 (40-60) | 0 (0-10) | 0 (0-10) | 0 (0-10) | –
O=c1c(Cl)nsnc1Oc1cc(Cl)cc(Cl)c1 [Compound 20, 3-chloro-5-(3,5-dichlorophenoxy)-4H--1,2,6-thiadiazin-4-one] | 4 (80-100) | 0 (0-10) | 0 (0-10) | 0 (0-10) | 53% | 91% | 91% | 100% | 0 (0-10) | 0 (0-10) | 0 (0-10) | 0 (0-10) | –
Cc1cccc(Oc2nsnc(Cl)c2=O)c1 [Compound 21, 3-chloro-5-(3-methylphenoxy)-4H--1,2,6-thiadiazin-4-one] | 4 (80-100) | 3 (60-80) | 0 (0-10) | 0 (0-10) | 27% | 33% | 100% | 100% | 1 (10-40) | 0 (0-10) | 0 (0-10) | 0 (0-10) | –
Cc1ccccc1Oc1nsnc(Cl)c1=O [Compound 22, 3-chloro-5-(2-methylphenoxy)-4H--1,2,6-thiadiazin-4-one] | 2 (40-60) | 0 (0-10) | 0 (0-10) | 0 (0-10) | 20% | 64% | 96% | 100% | 0 (0-10) | 0 (0-10) | 0 (0-10) | 0 (0-10) | –
Cc1ccc(Oc2nsnc(Cl)c2=O)c(C)c1 [Compound 23, 3-chloro-5-(2,4-dimethylphenoxy)-4H--1,2,6-thiadiazin-4-one] | 4 (80-100) | 4 (80-100) | 4 (80-100) | 0 (0-10) | 62% | 69% | 71% | 100% | 4 (80-100) | 1 (10-40) | 0 (0-10) | 0 (0-10) | –
Cc1cccc(C)c1Oc1nsnc(Cl)c1=O [Compound 24, 3-chloro-5-(2,6-dimethylphenoxy)-4H--1,2,6-thiadiazin-4-one] | 3 (60-80) | 1 (10-40) | 0 (0-10) | 0 (0-10) | 0% | 47% | 64% | 100% | 0 (0-10) | 0 (0-10) | 0 (0-10) | 0 (0-10) | –
Cc1cc(C)cc(Oc2nsnc(Cl)c2=O)c1 [Compound 25, 3-chloro-5-(3,5-dimethylphenoxy)-4H--1,2,6-thiadiazin-4-one] | 2 (40-60) | 1 (10-40) | 0 (0-10) | 0 (0-10) | 0% | 47% | 100% | 100% | 0 (0-10) | 0 (0-10) | 0 (0-10) | 0 (0-10) | –
Nc1ccc(Oc2nsnc(Cl)c2=O)cc1 [Compound 26, 5-(4-aminophenoxy)-3-chloro-4H--1,2,6-thiadiazin-4-one] | 0 (0-10) | 0 (0-10) | 0 (0-10) | 0 (0-10) | 0% | 0% | – | 100% | 1 (10-40) | 0 (0-10) | 0 (0-10) | 0 (0-10) | 13%
CNC(=O)Nc1ccc(Oc2nsnc(Cl)c2=O)cc1 [Compound 28, 3-chloro-5-[4-(3-methylureido)-phenoxy]-4H--1,2,6-thiadiazin-4-one] | 4 (80-100) | 1 (10-40) | 0 (0-10) | 0 (0-10) | 0% | 80% | 91% | 100% | 2 (40-60) | 2 (40-60) | 1 (10-40) | 0 (0-10) | –
